# Laboratory results: patent publication US9108944B2, “Androgen receptor modulators and uses thereof” (ARAGON PHARMACEUTICALS, INC., priority 2010, dated 2015)
# Legend:
# AR-VP16 [1] = target: T1, AR-VP16 (Homo sapiens, UniProt P10275); assay: AR-VP16 DNA Binding Assay, agonist mode (HepG2 cells); type: cell-based; conditions: Emax >20x DMSO control = agonist
# T1 sequence (P10275 560-920 limits assumed): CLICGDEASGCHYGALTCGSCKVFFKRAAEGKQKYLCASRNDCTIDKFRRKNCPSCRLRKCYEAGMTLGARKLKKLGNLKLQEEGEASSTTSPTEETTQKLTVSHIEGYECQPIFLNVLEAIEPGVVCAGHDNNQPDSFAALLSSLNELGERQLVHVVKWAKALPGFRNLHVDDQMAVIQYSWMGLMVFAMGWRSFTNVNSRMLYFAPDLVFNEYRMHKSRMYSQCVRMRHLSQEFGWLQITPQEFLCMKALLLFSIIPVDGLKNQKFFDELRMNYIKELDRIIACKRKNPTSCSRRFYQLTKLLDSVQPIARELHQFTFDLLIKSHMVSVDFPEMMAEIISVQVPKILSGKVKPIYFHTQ
# AR-VP16 [2] = target: T1, AR-VP16; assay: AR-VP16 DNA Binding Assay, antagonist mode (HepG2 cells, 0.1 nM R1881); type: cell-based
# Summary of the method: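 Transfected HepG2 cells expressing AR-VP16 received serially diluted compound in charcoal-stripped-serum RPMI the day after transfection, with 0.1 nM R1881 (final) added only for antagonist testing. After 48 h, cells were lysed for measurement.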
Structure (SMILES),ARVP16 DNA Binding Assay (Agonist mode): Agonist? (AR-VP16 [1]),IC50 (AR-VP16 [2])
"N#Cc1ncc(N2C(=O)C3(CCC3)N(c3ccccc3Oc3ccccc3)C2=S)cc1C(F)(F)F [Compound 23, 5-(8-Oxo-5-(2-phenoxyphenyl)-6-thioxo-5,7-diazaspiro[3.4]octan-7-yl)-3-(trifluoromethyl)picolinonitrile]",No (Agonist defined as a compound whose Emax in the ARVP16 DNA Binding Assay (Agonist mode) is >20x DMSO control),> 1000 nM
"N#Cc1ncc(N2C(=O)C3(CCC3)N(c3ccc(OCCCC[S+]([O-])CCCC(F)(F)C(F)(F)F)c(F)c3)C2=S)cc1C(F)(F)F (stereo not shown) [Compound 152, 5-(5-(3-Fluoro-4-(4-((4,4,5,5,5-pentafluoropentyl)sulfinyl)butoxy)phenyl)-8-oxo-6-thioxo-5,7-diazaspiro[3.4]octan-7-yl)-3-(trifluoromethyl)picolinonitrile]",No (Agonist defined as a compound whose Emax in the ARVP16 DNA Binding Assay (Agonist mode) is >20x DMSO control),< 1000 nM
"N#Cc1ncc(N2C(=O)C3(CCC3)N(c3ccc(F)c(C(=O)O)c3)C2=S)cc1C(F)(F)F [Compound 226, 5-(7-(6-Cyano-5-(trifluoromethyl)pyridin-3-yl)-8-oxo-6-thioxo-5,7-diazaspiro[3.4]octan-5-yl)-2-fluorobenzoic acid]",No (Agonist defined as a compound whose Emax in the ARVP16 DNA Binding Assay (Agonist mode) is >20x DMSO control),> 1000 nM
"CNC(=O)c1ccc(N2C(=S)N(c3cnc(C#N)c(C)c3)C(=O)C23CCC3)c(F)c1 [Compound 104, 4-(7-(6-Cyano-5-methylpyridin-3-yl)-8-oxo-6-thioxo-5,7-diazaspiro[3.4]octan-5-yl)-3-fluoro-N-methylbenzamide]",No (Agonist defined as a compound whose Emax in the ARVP16 DNA Binding Assay (Agonist mode) is >20x DMSO control),< 1000 nM
"N#Cc1ncc(N2C(=O)C3(CCC3)N(c3ccc(-c4ccncc4)cc3)C2=S)cc1C(F)(F)F [Compound 18, 5-(8-Oxo-5-(4-(pyridin-4-yl)phenyl)-6-thioxo-5,7-diazaspiro[3.4]octan-7-yl)-3-(trifluoromethyl)picolinonitrile]",Yes (Agonist defined as a compound whose Emax in the ARVP16 DNA Binding Assay (Agonist mode) is >20x DMSO control),< 1000 nM
"CCOC(=O)CNC(=O)c1ccc(N2C(=S)N(c3cnc(C#N)c(C(F)(F)F)c3)C(=O)C23CCC3)cc1F [Compound 245, Ethyl 2-(4-(7-(6-cyano-5-(trifluoromethyl)pyridin-3-yl)-8-oxo-6-thioxo-5,7-diazaspiro[3.4]octan-5-yl)-2-fluorobenzamido)acetate]",No (Agonist defined as a compound whose Emax in the ARVP16 DNA Binding Assay (Agonist mode) is >20x DMSO control),> 1000 nM
"N#Cc1ncc(N2C(=O)C3(CCC3)N(c3ccc(OCCc4ncccn4)c(F)c3)C2=S)cc1C(F)(F)F [Compound 189, 5-(5-(3-Fluoro-4-(2-(pyrimidin-2-yl)ethoxy)phenyl)-8-oxo-6-thioxo-5,7-diazaspiro[3.4]octan-7-yl)-3-(trifluoromethyl)picolinonitrile]",No (Agonist defined as a compound whose Emax in the ARVP16 DNA Binding Assay (Agonist mode) is >20x DMSO control),< 1000 nM
"Cc1cc(N2C(=O)C3(CCC3)N(c3ccc(C(=O)Nc4ccccc4Cl)c(F)c3)C2=S)cnc1C#N [Compound 294, N-(2-Chlorophenyl)-4-(7-(6-cyano-5-methylpyridin-3-yl)-8-oxo-6-thioxo-5,7-diazaspiro[3.4]octan-5-yl)-2-fluorobenzamide]",No (Agonist defined as a compound whose Emax in the ARVP16 DNA Binding Assay (Agonist mode) is >20x DMSO control),< 1000 nM
"N#Cc1ncc(N2C(=O)C3(CCC3)N(c3ccc(OCCc4ccccn4)c(F)c3)C2=S)cc1C(F)(F)F [Compound 130, 5-(5-(3-Fluoro-4-(2-(pyridin-2-yl)ethoxy)phenyl)-8-oxo-6-thioxo-5,7-diazaspiro[3.4]octan-7-yl)-3-(trifluoromethyl)picolinonitrile]",No (Agonist defined as a compound whose Emax in the ARVP16 DNA Binding Assay (Agonist mode) is >20x DMSO control),< 1000 nM
"O=C1N(c2ccc3nnc(C(F)(F)F)n3n2)C(=S)N(c2ccc(OCCc3ccccn3)cc2)C12CCC2 [Compound 155, 5-(4-(2-(Pyridin-2-yl)ethoxy)phenyl)-6-thioxo-7-(3-(trifluoromethyl)-[1,2,4]triazolo[4,3-b]pyridazin-6-yl)-5,7-diazaspiro[3.4]octan-8-one]",No (Agonist defined as a compound whose Emax in the ARVP16 DNA Binding Assay (Agonist mode) is >20x DMSO control),> 1000 nM
"Cc1ccncc1-c1ccc(N2C(=S)N(c3cnc(C#N)c(C)c3)C(=O)C23CCC3)cc1 [Compound 97, 3-Methyl-5-(5-(4-(4-methylpyridin-3-yl)phenyl)-8-oxo-6-thioxo-5,7-diazaspiro[3.4]octan-7-yl)picolinonitrile]",Yes (Agonist defined as a compound whose Emax in the ARVP16 DNA Binding Assay (Agonist mode) is >20x DMSO control),< 1000 nM
"CCOC(=O)N1CCC(Oc2ccc(N3C(=S)N(c4cnc(C#N)c(C(F)(F)F)c4)C(=O)C34CCC4)cc2)CC1 [Compound 214, ethyl 4-(4-(7-(6-cyano-5-(trifluoromethyl)pyridin-3-yl)-8-oxo-6-thioxo-5,7-diazaspiro[3.4]octan-5-yl)phenoxy)piperidine-1-carboxylate]",Yes (Agonist defined as a compound whose Emax in the ARVP16 DNA Binding Assay (Agonist mode) is >20x DMSO control),< 1000 nM
"N#Cc1ncc(N2C(=O)C3(CCC3)N(c3ccc(CCCC(=O)O)cc3)C2=S)cc1C(F)(F)F [Compound 227, 4-(4-(7-(6-cyano-5-(trifluoromethyl)pyridin-3-yl)-8-oxo-6-thioxo-5,7-diazaspiro[3.4]octan-5-yl)phenyl)butanoic acid]",No (Agonist defined as a compound whose Emax in the ARVP16 DNA Binding Assay (Agonist mode) is >20x DMSO control),> 1000 nM
"N#Cc1ncc(N2C(=O)C3(CCC3)N(c3ccc4ncoc4c3)C2=S)cc1C(F)(F)F [Compound 125, 5-(5-(Benzo[d]oxazol-6-yl)-8-oxo-6-thioxo-5,7-diazaspiro[3.4]octan-7-yl)-3-(trifluoromethyl)picolinonitrile]",No (Agonist defined as a compound whose Emax in the ARVP16 DNA Binding Assay (Agonist mode) is >20x DMSO control),< 1000 nM
"N#Cc1ncc(N2C(=O)C3(CCC3)N(c3ccc4cn[nH]c4c3)C2=S)cc1C(F)(F)F [Compound 88, 5-(5-(1H-Indazol-6-yl)-8-oxo-6-thioxo-5,7-diazaspiro[3.4]octan-7-yl)-3-(trifluoromethyl)picolinonitrile]",No (Agonist defined as a compound whose Emax in the ARVP16 DNA Binding Assay (Agonist mode) is >20x DMSO control),< 1000 nM
"CC(C)N1CCC(Oc2ccc(N3C(=S)N(c4cnc(C#N)c(C(F)(F)F)c4)C(=O)C34CCC4)cc2)CC1 [Compound 220, 5-(5-(4-((1-Isopropylpiperidin-4-yl)oxy)phenyl)-8-oxo-6-thioxo-5,7-diazaspiro[3.4]octan-7-yl)-3-(trifluoromethyl)picolinonitrile]",No (Agonist defined as a compound whose Emax in the ARVP16 DNA Binding Assay (Agonist mode) is >20x DMSO control),< 1000 nM
"N#Cc1ncc(N2C(=O)C3(CCC3)N(c3ccc(C(=O)NCCc4cccnc4)c(F)c3)C2=S)cc1C(F)(F)F [Compound 244, 4-(7-(6-Cyano-5-(trifluoromethyl)pyridin-3-yl)-8-oxo-6-thioxo-5,7-diazaspiro[3.4]octan-5-yl)-2-fluoro-N-(2-(pyridin-3-yl)ethyl)benzamide]",No (Agonist defined as a compound whose Emax in the ARVP16 DNA Binding Assay (Agonist mode) is >20x DMSO control),< 1000 nM
"N#Cc1ncc(N2C(=O)C3(CCC3)N(c3ccc(OCC(=O)O)c(F)c3)C2=S)cc1C(F)(F)F [Compound 228, 2-(4-(7-(6-Cyano-5-(trifluoromethyl)pyridin-3-yl)-8-oxo-6-thioxo-5,7-diazaspiro[3.4]octan-5-yl)-2-fluorophenoxy)acetic acid]",No (Agonist defined as a compound whose Emax in the ARVP16 DNA Binding Assay (Agonist mode) is >20x DMSO control),> 1000 nM
"COc1cc(N2C(=O)C3(CCC3)N(c3ccc(C)cc3)C2=S)cnc1C#N [Compound 59, 3-Methoxy-5-(8-oxo-6-thioxo-5-(p-tolyl)-5,7-diazaspiro[3.4]octan-7-yl)picolinonitrile]",No (Agonist defined as a compound whose Emax in the ARVP16 DNA Binding Assay (Agonist mode) is >20x DMSO control),< 1000 nM
"Cn1ncc(Br)c1CCNC(=O)c1ccc(N2C(=S)N(c3cnc(C#N)c(C(F)(F)F)c3)C(=O)C23CCC3)cc1F [Compound 256, N-(2-(4-Bromo-1-methyl-1H-pyrazol-5-yl)ethyl)-4-(7-(6-cyano-5-(trifluoromethyl)pyridin-3-yl)-8-oxo-6-thioxo-5,7-diazaspiro[3.4]octan-5-yl)-2-fluorobenzamide]",No (Agonist defined as a compound whose Emax in the ARVP16 DNA Binding Assay (Agonist mode) is >20x DMSO control),< 1000 nM
